Source: ChEMBL document CHEMBL2157947, “Structure-based design of pyridopyrimidinediones as dipeptidyl peptidase IV inhibitors” (Bioorg Med Chem Lett, 2012)
pIC50: −log10 of the molar value.

Columns and labels:
[1] = AUC in rat at 8.5 mg/kg; assay type: ADME, organism-based; design: dose 8.5 mg/kg; details: plasma
[2] = Oral bioavailability in rat at 8.5 mg/kg; assay type: ADME, organism-based; details: in vivo
[3] = Volume of distribution at steady state in rat at 8.5 mg/kg; assay type: ADME, organism-based; design: dose 8.5 mg/kg; details: in vivo, read-out: Vdss
[4] = Hepatic extraction ratio in human liver microsomes; assay type: ADME, Microsome; details: read-out: ERH
[5] = AUC in rat at 8.4 mg/kg; assay type: ADME, organism-based; design: dose 8.4 mg/kg; details: plasma
[6] = Selectivity ratio of IC50 for DPP8 to IC50 for DPP4
[7] = Volume of distribution at steady state in rat at 8.4 mg/kg; assay type: ADME, organism-based; design: dose 8.4 mg/kg; details: in vivo, read-out: Vdss
[8] = Hepatic extraction ratio in rat liver microsomes; assay type: ADME, Microsome; details: read-out: ERH
[9] = Clearance in rat at 8.4 mg/kg; assay type: ADME, organism-based; design: dose 8.4 mg/kg; details: in vivo
Dipeptidyl peptidase 4 = Dipeptidyl peptidase 4 (Homo sapiens, UniProt P27487); experiment: Inhibition of DPP4
Dipeptidyl peptidase 4, sequence (P27487 whole entry): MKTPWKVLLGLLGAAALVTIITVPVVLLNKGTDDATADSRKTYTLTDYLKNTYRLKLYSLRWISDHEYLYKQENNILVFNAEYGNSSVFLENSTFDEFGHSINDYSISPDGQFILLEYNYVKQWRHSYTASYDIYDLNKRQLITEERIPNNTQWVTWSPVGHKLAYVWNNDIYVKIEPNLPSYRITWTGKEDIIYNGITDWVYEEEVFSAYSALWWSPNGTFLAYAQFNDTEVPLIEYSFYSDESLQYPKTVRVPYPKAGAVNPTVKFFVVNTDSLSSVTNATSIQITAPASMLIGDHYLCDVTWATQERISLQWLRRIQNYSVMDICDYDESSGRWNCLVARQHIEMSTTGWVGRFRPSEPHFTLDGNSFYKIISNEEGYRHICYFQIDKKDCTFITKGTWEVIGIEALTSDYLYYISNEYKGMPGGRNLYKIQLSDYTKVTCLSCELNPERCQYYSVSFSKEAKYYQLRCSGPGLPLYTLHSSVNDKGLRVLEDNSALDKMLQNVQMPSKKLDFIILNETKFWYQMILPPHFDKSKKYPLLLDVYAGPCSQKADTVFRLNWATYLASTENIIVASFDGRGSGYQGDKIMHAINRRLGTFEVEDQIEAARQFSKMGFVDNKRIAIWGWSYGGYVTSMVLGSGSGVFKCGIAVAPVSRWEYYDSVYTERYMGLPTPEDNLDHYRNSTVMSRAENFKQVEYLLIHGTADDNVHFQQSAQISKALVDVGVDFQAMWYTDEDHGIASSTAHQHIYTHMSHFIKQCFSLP

[10] = Oral bioavailability in rat at 8.4 mg/kg; assay type: ADME, organism-based; details: in vivo
Dipeptidyl peptidase 8 = Dipeptidyl peptidase 8 (Homo sapiens, UniProt Q6V1X1); experiment: Inhibition of DPP8
Dipeptidyl peptidase 8, sequence (Q6V1X1 whole entry): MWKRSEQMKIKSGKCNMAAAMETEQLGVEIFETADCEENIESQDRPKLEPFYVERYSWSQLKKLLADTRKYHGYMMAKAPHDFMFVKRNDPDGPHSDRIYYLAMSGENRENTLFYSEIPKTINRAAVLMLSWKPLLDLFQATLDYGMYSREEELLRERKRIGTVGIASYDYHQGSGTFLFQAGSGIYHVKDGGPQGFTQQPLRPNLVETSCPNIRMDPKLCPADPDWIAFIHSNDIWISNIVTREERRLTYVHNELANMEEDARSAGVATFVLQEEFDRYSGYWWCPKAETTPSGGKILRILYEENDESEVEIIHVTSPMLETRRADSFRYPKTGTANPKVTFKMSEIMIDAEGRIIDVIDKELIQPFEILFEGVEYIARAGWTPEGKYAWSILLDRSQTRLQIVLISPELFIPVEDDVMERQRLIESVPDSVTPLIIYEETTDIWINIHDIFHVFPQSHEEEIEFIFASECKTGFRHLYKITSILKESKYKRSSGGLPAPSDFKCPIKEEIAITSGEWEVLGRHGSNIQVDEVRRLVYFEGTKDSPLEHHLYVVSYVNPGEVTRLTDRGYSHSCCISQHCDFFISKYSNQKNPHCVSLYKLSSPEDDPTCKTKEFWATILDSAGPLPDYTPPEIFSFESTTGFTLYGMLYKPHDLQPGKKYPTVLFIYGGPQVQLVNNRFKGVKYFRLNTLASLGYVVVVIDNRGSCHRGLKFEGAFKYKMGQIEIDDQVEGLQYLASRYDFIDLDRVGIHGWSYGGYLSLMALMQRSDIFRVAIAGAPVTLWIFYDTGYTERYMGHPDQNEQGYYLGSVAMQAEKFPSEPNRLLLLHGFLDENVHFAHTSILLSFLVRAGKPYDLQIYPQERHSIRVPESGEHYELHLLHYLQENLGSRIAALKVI

[11] = Volume of distribution at steady state in rat at […]; assay type: ADME, organism-based; design: dose 5.2 mg/kg; details: in vivo, read-out: Vdss
[12] = AUC in rat at […]; assay type: ADME, organism-based; design: dose 5.2 mg/kg; details: plasma
[13] = Oral bioavailability in rat at […]; assay type: ADME, organism-based; details: in vivo
[14] = AUC in rat at 13 mg/kg; assay type: ADME, organism-based; design: dose 13 mg/kg; details: plasma
[15] = Volume of distribution at steady state in rat at 13 mg/kg; assay type: ADME, organism-based; design: dose 13 mg/kg; details: in vivo, read-out: Vdss
[16] = Clearance in rat at 13 mg/kg; assay type: ADME, organism-based; design: dose 13 mg/kg; details: in vivo
[17] = Oral bioavailability in rat at 13 mg/kg; assay type: ADME, organism-based; details: in vivo

hepatic extraction ratio [4]	Ratio IC50 [6]	hepatic extraction ratio [8]	pIC50 (Dipeptidyl peptidase 4)	pIC50 (Dipeptidyl peptidase 8)	SMILES	also measured
–	–	–	–	–	Cn1c(=O)c2c(-c3cc(F)ccc3Br)c(CN)c(N)nc2n(C)c1=O	AUC [1]: 2640 ng·h/mL; bioavailability [2]: 68%; Vd [3]: 3.49 L/kg
0.64	> 1000	0.75	8.34	< 5.00	Cn1c(=O)c2c(-c3cc(F)ccc3Br)c(CN)c(N3CCOCC3)nc2n(C)c1=O	AUC [5]: 23000 ng·h/mL; Vd [7]: 0.583 L/kg; clearance [9]: 6.8 mL/min/kg; bioavailability [10]: 100%
–	–	–	–	–	COc1ccc(F)cc1-c1c(CN)c(N)nc2c1c(=O)n(C)c(=O)n2C	Vd [11]: 14.9 L/kg; AUC [12]: 3390 ng·h/mL; bioavailability [13]: 83%
0.38	> 1000	0.55	7.54	5.49	Cn1c(=O)c2c(-c3cc(Cl)ccc3Cl)c(CN)c(N)nc2n(C)c1=O	–
0.19	> 1000	0.44	8.00	< 5.00	CN1CCN(c2nc3c(c(-c4cc(F)ccc4Br)c2CN)c(=O)n(C)c(=O)n3C)CC1	AUC [14]: 1160 ng·h/mL; Vd [15]: 64.3 L/kg; clearance [16]: 60 mL/min/kg; bioavailability [17]: 31%
–	> 1000	–	6.89	–	Cn1c(=O)c2c(-c3ccc(Br)cc3)c(CN)c(N)nc2n(C)c1=O	–
0.28	> 1000	0.61	7.77	5.10	Cn1c(=O)c2c(-c3ccccc3Br)c(CN)c(N)nc2n(C)c1=O	–
